According to patent US20260125374A1, “PI3K-ALPHA INHIBITORS AND METHODS OF MAKING AND USING THE SAME” (Relay Therapeutics, Inc., priority 2021, published 2026):

Experiment: Salt screening (XRPD, chiral purity of hits)
Format: physicochemical
Settings: for Chiral purity of salt screening solid: slurry
Procedure: Based on the pKa of I-1 free form, 23 counter ions were selected as salt/cocrystal forming agents. Methanol, acetone and isopropyl acetate were used as screening solvents. 1.0 equivalent of selected counter ions/coformers was applied for salt screening. Slurry equilibration, slow evaporation and anti-solvent addition were used as crystallization methods. In total, about 70 screening experiments were conducted.
About 50 mg of I-1 Form A were added to a suitable amount of solvent and 1.0 equivalent of counter ions were added under stirring at 50° C. for 2 hours and then at 25° C. for at least 12 hours. MeOH, acetone and IPAc were used as screening solvents.
Obtained suspensions were taken out and centrifuged. Solids obtained were analyzed by XRPD and salt screening results were summarized in Table 5.1, Table 5.2, and Table 5.3.

[1] = 1.0 equiv. naphthalene-1,5-disulfonic acid, MeOH
[2] = 1.0 equiv. naphthalene-1,5-disulfonic acid, MeOH/water(9:1, v/v)
[3] = 1.0 equiv. naphthalene-1,5-disulfonic acid, MeOH, dried at 50° C. for 21 h
[4] = crystalline hits of salt screening, listed as I-1 Form A

## N#Cc1c(-c2cc(NC(=O)c3cc(F)cc(C(F)(F)F)c3)c3c(c2)C(=O)N[C@H]3c2cc(F)ccc2Cl)ccc2ncnn12 [Compound I-1, (R)-N-(3-(2-chloro-5-fluorophenyl)-6-(5-cyano-[1,2,4]triazolo[1,5-a]pyridin-6-yl)-1-oxoisoindolin-4-yl)-3-fluoro-5-(trifluoromethyl)benzamide]
1.0 equiv. L-tartaric acid, Isopropyl acetate
  Salt screening result (slurry crystallization): − (I-1 Form A) (Free form, counter ions, or physical mixtures)
1.0 equiv. L-tartaric acid, MeOH
  Salt screening result (slurry crystallization): − (I-1 Form A) (Free form, counter ions, or physical mixtures)
1.0 equiv. citric acid, Acetone
  Salt screening result (slurry crystallization): thin suspension
1.0 equiv. citric acid, Acetone/MTBE
  Salt screening result (anti-solvent): −(I-1 Form B) (Free form, counter ions, or physical mixtures)
1.0 equiv. citric acid, Isopropyl acetate
  Salt screening result (slurry crystallization): − (I-1 Form A) (Free form, counter ions, or physical mixtures)
1.0 equiv. citric acid, MeOH
  Salt screening result (slurry crystallization): − (I-1 Form A) (Free form, counter ions, or physical mixtures)
1.0 equiv. fumaric acid, Acetone
  Salt screening result (slurry crystallization): − (physical mixtures (Free form, counter ions, or physical mixtures)
1.0 equiv. fumaric acid, Isopropyl acetate
  Salt screening result (slurry crystallization): − (physical mixtures (Free form, counter ions, or physical mixtures)
1.0 equiv. fumaric acid, MeOH
  Salt screening result (slurry crystallization): − (I-1 Form A) (Free form, counter ions, or physical mixtures)
1.0 equiv. gentisic acid, Acetone
  Salt screening result (slurry crystallization): thin suspension
1.0 equiv. gentisic acid, Acetone/MTBE
  Salt screening result (anti-solvent): −(I-1 Form B) (Free form, counter ions, or physical mixtures)
1.0 equiv. gentisic acid, Isopropyl acetate
  Salt screening result (slurry crystallization): − (I-1 Form A) (Free form, counter ions, or physical mixtures)
1.0 equiv. gentisic acid, MeOH
  Salt screening result (slurry crystallization): − (I-1 Form A) (Free form, counter ions, or physical mixtures)
1.0 equiv. isonicotinamide, Acetone
  Salt screening result (slurry crystallization): thin suspension
1.0 equiv. isonicotinamide, Acetone/MTBE
  Salt screening result (anti-solvent): −(I-1 Form B) (Free form, counter ions, or physical mixtures)
1.0 equiv. isonicotinamide, Isopropyl acetate
  Salt screening result (slurry crystallization): − (physical mixtures (Free form, counter ions, or physical mixtures)
1.0 equiv. isonicotinamide, MeOH
  Salt screening result (slurry crystallization): − (I-1 Form A) (Free form, counter ions, or physical mixtures)
1.0 equiv. maleic acid, Acetone
  Salt screening result (slurry crystallization): thin suspension
1.0 equiv. maleic acid, Acetone/MTBE
  Salt screening result (anti-solvent): −(I-1 Form B) (Free form, counter ions, or physical mixtures)
1.0 equiv. maleic acid, Isopropyl acetate
  Salt screening result (slurry crystallization): − (I-1 Form A) (Free form, counter ions, or physical mixtures)
1.0 equiv. maleic acid, MeOH
  Salt screening result (slurry crystallization): − (I-1 Form A) (Free form, counter ions, or physical mixtures)
1.0 equiv. malonic acid, Acetone
  Salt screening result (slurry crystallization): thin suspension
1.0 equiv. malonic acid, Acetone/MTBE
  Salt screening result (anti-solvent): −(I-1 Form B) (Free form, counter ions, or physical mixtures)
1.0 equiv. malonic acid, Isopropyl acetate
  Salt screening result (slurry crystallization): − (I-1 Form A) (Free form, counter ions, or physical mixtures)
1.0 equiv. malonic acid, MeOH
  Salt screening result (slurry crystallization): − (I-1 Form A) (Free form, counter ions, or physical mixtures)
1.0 equiv. methanesulfonic acid, Acetone
  Salt screening result (slurry crystallization): thin suspension
1.0 equiv. methanesulfonic acid, IPAc/MTBE
  Salt screening result (anti-solvent): thin suspension
1.0 equiv. methanesulfonic acid, Isopropyl acetate
  Salt screening result (slurry crystallization): thin suspension
1.0 equiv. naphthalene-1,5-disulfonic acid, Acetone
  Salt screening result (slurry crystallization): thin suspension
1.0 equiv. naphthalene-1,5-disulfonic acid, Isopropyl acetate, 3 days
  Salt screening result (slurry crystallization): 3 days: AF;
1.0 equiv. naphthalene-1,5-disulfonic acid, Isopropyl acetate, for another 3 days
  Salt screening result (slurry crystallization): 3 days: AF
[1]
  Salt screening result (slurry crystallization): + (I-1 Form A ) (Salt hits)
  Chiral purity of salt screening solid: Chiral purity: 100%
[2]
  Salt screening result (slurry crystallization): − (physical mixtures of (Free form, counter ions, or physical mixtures)
  Chiral purity of salt screening solid: Chiral purity: 99.3%
[3]
  Crystallinity of salt screening solid: low crystallinity
  Chiral purity of salt screening solid: Chiral purity: 100%
1.0 equiv. naphthalene-2-sulfonic acid, Isopropyl acetate
  Salt screening result (slurry crystallization): thin suspension
1.0 equiv. nicotinamide, Acetone
  Salt screening result (slurry crystallization): thin suspension
1.0 equiv. nicotinamide, Acetone/MTBE
  Salt screening result (anti-solvent): −(I-1 Form B) (Free form, counter ions, or physical mixtures)
1.0 equiv. nicotinamide, Isopropyl acetate
  Salt screening result (slurry crystallization): − (physical mixtures (Free form, counter ions, or physical mixtures)
1.0 equiv. nicotinamide, MeOH
  Salt screening result (slurry crystallization): − (I-1 Form A (Free form, counter ions, or physical mixtures)
1.0 equiv. nicotinic acid, Acetone
  Salt screening result (slurry crystallization): − (physical mixtures (Free form, counter ions, or physical mixtures)
1.0 equiv. nicotinic acid, Isopropyl acetate
  Salt screening result (slurry crystallization): − (physical mixtures (Free form, counter ions, or physical mixtures)
1.0 equiv. nicotinic acid, MeOH
  Salt screening result (slurry crystallization): − (physical mixtures (Free form, counter ions, or physical mixtures)
1.0 equiv. phosphoric acid, Acetone
  Salt screening result (slurry crystallization): thin suspension
1.0 equiv. phosphoric acid, Acetone/MTBE
  Salt screening result (anti-solvent): −(I-1 Form B) (Free form, counter ions, or physical mixtures)
1.0 equiv. phosphoric acid, Isopropyl acetate
  Salt screening result (slurry crystallization): − (I-1 Form A) (Free form, counter ions, or physical mixtures)
1.0 equiv. phosphoric acid, MeOH
  Salt screening result (slurry crystallization): − (I-1 Form A) (Free form, counter ions, or physical mixtures)
1.0 equiv. sodium hydroxide, Acetone
  Salt screening result (slurry crystallization): thin suspension
1.0 equiv. sodium hydroxide, Isopropyl acetate, for another 3 days
  Salt screening result (slurry crystallization): another 3 days: AF
1.0 equiv. sodium hydroxide, MeOH
  Salt screening result (slurry crystallization): clear solution
1.0 equiv. sulfuric acid, Acetone
  Salt screening result (slurry crystallization): thin suspension
1.0 equiv. sulfuric acid, Acetone/MTBE
  Salt screening result (anti-solvent): thin suspension
1.0 equiv. sulfuric acid, Isopropyl acetate
  Salt screening result (slurry crystallization): thin suspension
1.0 equiv. sulfuric acid, MeOH
  Salt screening result (slurry crystallization): − (I-1 Form A) (Free form, counter ions, or physical mixtures)
1.0 equiv. theobromine, Acetone
  Salt screening result (slurry crystallization): − (physical mixtures (Free form, counter ions, or physical mixtures)
1.0 equiv. theobromine, Isopropyl acetate
  Salt screening result (slurry crystallization): − (physical mixtures (Free form, counter ions, or physical mixtures)
1.0 equiv. theobromine, MeOH
  Salt screening result (slurry crystallization): − (physical mixtures (Free form, counter ions, or physical mixtures)
1.0 equiv. theophylline, Acetone
  Salt screening result (slurry crystallization): − (physical mixtures (Free form, counter ions, or physical mixtures)
1.0 equiv. theophylline, Isopropyl acetate
  Salt screening result (slurry crystallization): − (physical mixtures (Free form, counter ions, or physical mixtures)
1.0 equiv. theophylline, MeOH
  Salt screening result (slurry crystallization): − (physical mixtures (Free form, counter ions, or physical mixtures)
Free form, Acetone
  Salt screening result (slurry crystallization): − (I-1 Form A) (Free form, counter ions, or physical mixtures)
Free form, Isopropyl acetate
  Salt screening result (slurry crystallization): − (I-1 Form A) (Free form, counter ions, or physical mixtures)
Free form, MeOH
  Salt screening result (slurry crystallization): − (I-1 Form A) (Free form, counter ions, or physical mixtures)
[4]
  Chiral purity (by HPLC): 99.2%
  Crystallinity (By XRPD): High
